{"source": "ChEMBL document CHEMBL1159143", "about": "“Benzofuran based non-peptide antagonists of angiotensin II related to GR117289: part IV; imidazopyridinylbenzofurans” (Bioorg Med Chem Lett, 1994)", "key": {"[1]": {"system": "Type-1 angiotensin II receptor (Oryctolagus cuniculus)", "test": "In vitro inhibitory activity against Angiotensin II receptor in rabbit aorta was evaluated"}, "[2]": {"test": "Compound was tested for plasma clearance in rats", "format": "ADME, organism-based", "conditions": "rat, read-out: Clp"}, "[3]": {"test": "Volume distribution in rat", "format": "ADME, organism-based", "conditions": "in vivo"}, "[4]": {"test": "Oral bioavailability in rat", "format": "ADME, organism-based", "conditions": "in vivo"}, "[5]": {"test": "Compound was tested for plasma half-life period in rat", "format": "ADME, organism-based"}}, "data": [{"smiles": "CCc1nc2c(C)ccnc2n1Cc1ccc2oc(-c3ccccc3NS(=O)(=O)C(F)(F)F)c(Br)c2c1", "values": [{"measurement": "pKB", "setting": "[1]", "result": 8.3}]}, {"smiles": "CCc1nc2c(C)cc(C(=O)O)nc2n1Cc1ccc2oc(-c3ccccc3NS(=O)(=O)C(F)(F)F)c(Br)c2c1", "values": [{"measurement": "pKB", "setting": "[1]", "result": 9.3}]}, {"smiles": "CCc1nc2c(C)cc(C)nc2n1Cc1ccc2oc(-c3ccccc3NS(=O)(=O)C(F)(F)F)c(Br)c2c1", "values": [{"measurement": "clearance", "setting": "[2]", "result": 5.49, "unit": "mL/min/kg"}, {"measurement": "Vd", "setting": "[3]", "result": 1.33, "unit": "L/kg"}, {"measurement": "bioavailability", "setting": "[4]", "result": 70, "unit": "%"}, {"measurement": "half-life", "setting": "[5]", "result": 2.8, "unit": "h"}, {"measurement": "pKB", "setting": "[1]", "result": 9.3}]}, {"smiles": "CCc1nc2c(C)cc(CO)nc2n1Cc1ccc2oc(-c3ccccc3NS(=O)(=O)C(F)(F)F)c(Br)c2c1", "values": [{"measurement": "clearance", "setting": "[2]", "result": 4.8, "unit": "mL/min/kg"}, {"measurement": "Vd", "setting": "[3]", "result": 2.4, "unit": "L/kg"}, {"measurement": "bioavailability", "setting": "[4]", "result": 115, "unit": "%"}, {"measurement": "half-life", "setting": "[5]", "result": 5.7, "unit": "h"}, {"measurement": "pKB", "setting": "[1]", "result": 8.6}]}]}
